Legend:
Design in all cases: dose 0.5-1 mg/kg, route intravenous
[1] = system: Liver; test: Biodistribution in Sprague-Dawley rat liver at 0.5 to 1 mg/kg, iv after 15 mins by gamma-well counting analysis; assay type: ADME, organism-based; conditions: in vivo, 0.25 h
[2] = system: Spleen; test: Biodistribution in Sprague-Dawley rat spleen at 0.5 to 1 mg/kg, iv after 15 mins by gamma-well counting analysis; assay type: ADME, organism-based; conditions: in vivo, 0.25 h
[3] = system: Lung; test: Biodistribution in Sprague-Dawley rat lung at 0.5 to 1 mg/kg, iv after 15 mins by gamma-well counting analysis; assay type: ADME, organism-based; conditions: in vivo, 0.25 h
[4] = system: Heart; test: Biodistribution in Sprague-Dawley rat heart at 0.5 to 1 mg/kg, iv after 15 mins by gamma-well counting analysis; assay type: ADME, organism-based; conditions: in vivo, 0.25 h
[5] = system: Kidney; test: Biodistribution in Sprague-Dawley rat kidney at 0.5 to 1 mg/kg, iv after 15 mins by gamma-well counting analysis; assay type: ADME, organism-based; conditions: in vivo, 0.25 h
[6] = system: Muscle tissue; test: Biodistribution in Sprague-Dawley rat muscle at 0.5 to 1 mg/kg, iv after 15 mins by gamma-well counting analysis; assay type: ADME, organism-based; conditions: in vivo, 0.25 h
[7] = system: Bone; test: Biodistribution in Sprague-Dawley rat bone at 0.5 to 1 mg/kg, iv after 15 mins by gamma-well counting analysis; assay type: ADME, organism-based, Bone element; conditions: in vivo, 0.25 h
[8] = system: Blood; test: Biodistribution in Sprague-Dawley rat blood at 0.5 to 1 mg/kg, iv after 15 mins by gamma-well counting analysis; assay type: ADME, organism-based; conditions: in vivo, 0.25 h
[9] = system: Thyroid gland; test: Biodistribution in Sprague-Dawley rat thyroid at 0.5 to 1 mg/kg, iv after 15 mins by gamma-well counting analysis; assay type: ADME, organism-based; conditions: in vivo, 0.25 h
[10] = system: Liver; test: Biodistribution in Sprague-Dawley rat liver at 0.5 to 1 mg/kg, iv after 1 hr by gamma-well counting analysis; assay type: ADME, organism-based; conditions: in vivo
[11] = system: Spleen; test: Biodistribution in Sprague-Dawley rat spleen at 0.5 to 1 mg/kg, iv after 1 hr by gamma-well counting analysis; assay type: ADME, organism-based; conditions: in vivo
[12] = system: Lung; test: Biodistribution in Sprague-Dawley rat lung at 0.5 to 1 mg/kg, iv after 1 hr by gamma-well counting analysis; assay type: ADME, organism-based; conditions: in vivo
[13] = system: Heart; test: Biodistribution in Sprague-Dawley rat heart at 0.5 to 1 mg/kg, iv after 1 hr by gamma-well counting analysis; assay type: ADME, organism-based; conditions: in vivo
[14] = system: Kidney; test: Biodistribution in Sprague-Dawley rat kidney at 0.5 to 1 mg/kg, iv after 1 hr by gamma-well counting analysis; assay type: ADME, organism-based; conditions: in vivo
[15] = system: Muscle tissue; test: Biodistribution in Sprague-Dawley rat muscle at 0.5 to 1 mg/kg, iv after 1 hr by gamma-well counting analysis; assay type: ADME, organism-based; conditions: in vivo
[16] = system: Bone; test: Biodistribution in Sprague-Dawley rat bone at 0.5 to 1 mg/kg, iv after 1 hr by gamma-well counting analysis; assay type: ADME, organism-based, Bone element; conditions: in vivo
[17] = system: Blood; test: Biodistribution in Sprague-Dawley rat blood at 0.5 to 1 mg/kg, iv after 1 hr by gamma-well counting analysis; assay type: ADME, organism-based; conditions: in vivo
[18] = system: Liver; test: Biodistribution in Sprague-Dawley rat liver assessed per organ at 0.5 to 1 mg/kg, iv after 15 mins by gamma-well counting analysis; assay type: ADME, organism-based; conditions: in vivo, 0.25 h
[19] = system: Spleen; test: Biodistribution in Sprague-Dawley rat spleen assessed per organ at 0.5 to 1 mg/kg, iv after 15 mins by gamma-well counting analysis; assay type: ADME, organism-based; conditions: in vivo, 0.25 h
[20] = system: Lung; test: Biodistribution in Sprague-Dawley rat lung assessed per organ at 0.5 to 1 mg/kg, iv after 15 mins by gamma-well counting analysis; assay type: ADME, organism-based; conditions: in vivo, 0.25 h
[21] = system: Heart; test: Biodistribution in Sprague-Dawley rat heart assessed per organ at 0.5 to 1 mg/kg, iv after 15 mins by gamma-well counting analysis; assay type: ADME, organism-based; conditions: in vivo, 0.25 h
[22] = system: Stomach; test: Biodistribution in Sprague-Dawley rat stomach assessed per organ at 0.5 to 1 mg/kg, iv after 15 mins by gamma-well counting analysis; assay type: ADME, organism-based; conditions: in vivo, 0.25 h
[23] = system: Kidney; test: Biodistribution in Sprague-Dawley rat kidney assessed per organ at 0.5 to 1 mg/kg, iv after 15 mins by gamma-well counting analysis; assay type: ADME, organism-based; conditions: in vivo, 0.25 h
[24] = system: Small intestine; test: Biodistribution in Sprague-Dawley rat small intestine assessed per organ at 0.5 to 1 mg/kg, iv after 15 mins by gamma-well counting analysis; assay type: ADME, organism-based; conditions: in vivo, 0.25 h
[25] = system: Large intestine; test: Biodistribution in Sprague-Dawley rat large intestine assessed per organ at 0.5 to 1 mg/kg, iv after 15 mins by gamma-well counting analysis; assay type: ADME, organism-based; conditions: in vivo, 0.25 h
[26] = system: Muscle tissue; test: Biodistribution in Sprague-Dawley rat muscle assessed per organ at 0.5 to 1 mg/kg, iv after 15 mins by gamma-well counting analysis; assay type: ADME, organism-based; conditions: in vivo, 0.25 h
[27] = Biodistribution in Sprague-Dawley rat fat and fur assessed per organ at 0.5 to 1 mg/kg, iv after 15 mins by gamma-well counting analysis; assay type: ADME, organism-based, Adipose tissue; conditions: in vivo, 0.25 h
[28] = system: Bone; test: Biodistribution in Sprague-Dawley rat bone assessed per organ at 0.5 to 1 mg/kg, iv after 15 mins by gamma-well counting analysis; assay type: ADME, organism-based, Bone element; conditions: in vivo, 0.25 h
[29] = system: Blood; test: Biodistribution in Sprague-Dawley rat blood assessed per organ at 0.5 to 1 mg/kg, iv after 15 mins by gamma-well counting analysis; assay type: ADME, organism-based; conditions: in vivo, 0.25 h
[30] = system: Thyroid gland; test: Biodistribution in Sprague-Dawley rat thyroid assessed per organ at 0.5 to 1 mg/kg, iv after 15 mins by gamma-well counting analysis; assay type: ADME, organism-based; conditions: in vivo, 0.25 h
[31] = system: Liver; test: Biodistribution in Sprague-Dawley rat liver assessed per organ at 0.5 to 1 mg/kg, iv after 1 hr by gamma-well counting analysis; assay type: ADME, organism-based; conditions: in vivo
[32] = system: Spleen; test: Biodistribution in Sprague-Dawley rat spleen assessed per organ at 0.5 to 1 mg/kg, iv after 1 hr by gamma-well counting analysis; assay type: ADME, organism-based; conditions: in vivo
[33] = system: Lung; test: Biodistribution in Sprague-Dawley rat lung assessed per organ at 0.5 to 1 mg/kg, iv after 1 hr by gamma-well counting analysis; assay type: ADME, organism-based; conditions: in vivo
[34] = system: Heart; test: Biodistribution in Sprague-Dawley rat heart assessed per organ at 0.5 to 1 mg/kg, iv after 1 hr by gamma-well counting analysis; assay type: ADME, organism-based; conditions: in vivo
[35] = system: Stomach; test: Biodistribution in Sprague-Dawley rat stomach assessed per organ at 0.5 to 1 mg/kg, iv after 1 hr by gamma-well counting analysis; assay type: ADME, organism-based; conditions: in vivo
[36] = system: Kidney; test: Biodistribution in Sprague-Dawley rat kidney assessed per organ at 0.5 to 1 mg/kg, iv after 1 hr by gamma-well counting analysis; assay type: ADME, organism-based; conditions: in vivo
[37] = system: Small intestine; test: Biodistribution in Sprague-Dawley rat small intestine assessed per organ at 0.5 to 1 mg/kg, iv after 1 hr by gamma-well counting analysis; assay type: ADME, organism-based; conditions: in vivo
[38] = system: Large intestine; test: Biodistribution in Sprague-Dawley rat large intestine assessed per organ at 0.5 to 1 mg/kg, iv after 1 hr by gamma-well counting analysis; assay type: ADME, organism-based; conditions: in vivo
[39] = system: Muscle tissue; test: Biodistribution in Sprague-Dawley rat muscle assessed per organ at 0.5 to 1 mg/kg, iv after 1 hr by gamma-well counting analysis; assay type: ADME, organism-based; conditions: in vivo
[40] = Biodistribution in Sprague-Dawley rat fat and fur assessed per organ at 0.5 to 1 mg/kg, iv after 1 hr by gamma-well counting analysis; assay type: ADME, organism-based, Adipose tissue; conditions: in vivo
[41] = system: Bone; test: Biodistribution in Sprague-Dawley rat bone assessed per organ at 0.5 to 1 mg/kg, iv after 1 hr by gamma-well counting analysis; assay type: ADME, organism-based, Bone element; conditions: in vivo
[42] = system: Blood; test: Biodistribution in Sprague-Dawley rat blood assessed per organ at 0.5 to 1 mg/kg, iv after 1 hr by gamma-well counting analysis; assay type: ADME, organism-based; conditions: in vivo
[43] = system: Thyroid gland; test: Biodistribution in Sprague-Dawley rat thyroid assessed per organ at 0.5 to 1 mg/kg, iv after 1 hr by gamma-well counting analysis; assay type: ADME, organism-based; conditions: in vivo
[44] = system: Thyroid gland; test: Biodistribution in Sprague-Dawley rat thyroid at 0.5 to 1 mg/kg, iv after 1 hr by gamma-well counting analysis; assay type: ADME, organism-based; conditions: in vivo

Structure (SMILES): CC(=O)c1cc(NC(=O)c2cccc([125I])c2)ccc1OCC(O)CNC(C)C (racemic)
- Drug uptake [1]: 2.4 % ID/g
- Drug uptake [2]: 0.97 % ID/g
- Drug uptake [3]: 1.63 % ID/g
- Drug uptake [4]: 0.99 % ID/g
- Drug uptake [5]: 2.8 % ID/g
- Drug uptake [6]: 0.22 % ID/g
- Drug uptake [7]: 0.22 % ID/g
- Drug uptake [8]: 0.09 % ID/g
- Drug uptake [9]: 6.06 % ID/g
- Drug uptake [10]: 1.59 % ID/g
- Drug uptake [11]: 0.6 % ID/g
- Drug uptake [12]: 1.27 % ID/g
- Drug uptake [13]: 0.58 % ID/g
- Drug uptake [14]: 1.16 % ID/g
- Drug uptake [15]: 0.2 % ID/g
- Drug uptake [16]: 0.17 % ID/g
- Drug uptake [17]: 0.06 % ID/g
- Drug uptake [18]: 20.19 %ID
- Drug uptake [19]: 0.52 %ID
- Drug uptake [20]: 1.77 %ID
- Drug uptake [21]: 0.66 %ID
- Drug uptake [22]: 1.26 %ID
- Drug uptake [23]: 4.38 %ID
- Drug uptake [24]: 9.39 %ID
- Drug uptake [25]: 2.42 %ID
- Drug uptake [26]: 16.64 %ID
- Drug uptake [27]: 7.66 %ID
- Drug uptake [28]: 2.49 %ID
- Drug uptake [29]: 1 %ID
- Drug uptake [30]: 0.12 %ID
- Drug uptake [31]: 12.11 %ID
- Drug uptake [32]: 0.31 %ID
- Drug uptake [33]: 1.41 %ID
- Drug uptake [34]: 0.31 %ID
- Drug uptake [35]: 1.19 %ID
- Drug uptake [36]: 1.83 %ID
- Drug uptake [37]: 15.4 %ID
- Drug uptake [38]: 1.01 %ID
- Drug uptake [39]: 14.87 %ID
- Drug uptake [40]: 6.73 %ID
- Drug uptake [41]: 1.94 %ID
- Drug uptake [42]: 0.74 %ID
- Drug uptake [43]: 0.17 %ID

Structure (SMILES): CC(C)NCC(O)COc1ccc([125I])c2ccccc12 (racemic)
- Drug uptake [1]: 0.74 % ID/g
- Drug uptake [2]: 1.15 % ID/g
- Drug uptake [3]: 2.58 % ID/g
- Drug uptake [4]: 0.35 % ID/g
- Drug uptake [5]: 0.98 % ID/g
- Drug uptake [6]: 0.2 % ID/g
- Drug uptake [7]: 0.16 % ID/g
- Drug uptake [8]: 0.12 % ID/g
- Drug uptake [9]: 2.76 % ID/g
- Drug uptake [10]: 0.66 % ID/g
- Drug uptake [11]: 0.6 % ID/g
- Drug uptake [12]: 2.01 % ID/g
- Drug uptake [13]: 0.19 % ID/g
- Drug uptake [14]: 0.76 % ID/g
- Drug uptake [15]: 0.1 % ID/g
- Drug uptake [16]: 0.12 % ID/g
- Drug uptake [17]: 0.1 % ID/g
- Drug uptake [44]: 6.85 % ID/g
- Drug uptake [18]: 7.3 %ID
- Drug uptake [19]: 0.52 %ID
- Drug uptake [20]: 3.9 %ID
- Drug uptake [21]: 0.26 %ID
- Drug uptake [22]: 1.99 %ID
- Drug uptake [23]: 1.83 %ID
- Drug uptake [24]: 12.98 %ID
- Drug uptake [25]: 1.41 %ID
- Drug uptake [26]: 19.67 %ID
- Drug uptake [27]: 8.82 %ID
- Drug uptake [28]: 2.52 %ID
- Drug uptake [29]: 1.87 %ID
- Drug uptake [30]: 0.06 %ID
- Drug uptake [31]: 7.08 %ID
- Drug uptake [32]: 0.4 %ID
- Drug uptake [33]: 2.78 %ID
- Drug uptake [34]: 0.16 %ID
- Drug uptake [35]: 2.24 %ID
- Drug uptake [36]: 1.58 %ID
- Drug uptake [37]: 16.23 %ID
- Drug uptake [38]: 0.91 %ID
- Drug uptake [39]: 10.71 %ID
- Drug uptake [40]: 9.69 %ID
- Drug uptake [41]: 1.84 %ID
- Drug uptake [42]: 1.44 %ID
- Drug uptake [43]: 0.14 %ID

Source: ChEMBL document CHEMBL3272333, “Synthesis and biologic distribution of radioiodinated beta-adrenergic antagonists” (J Med Chem, 1978)
